13 compounds from patent publication US6818765B1, “Benzene-sulphonamide derivatives and their uses” (Universite de Liege, priority 1999, dated 2004) can be followed below.

The target of experiment [1] is T1, thromboxane A2 receptors (TPα) of human platelets (Homo sapiens, UniProt P21731).
T1 construct: endogenous in cells; host or cells: human platelets
T1 sequence (P21731 1-343): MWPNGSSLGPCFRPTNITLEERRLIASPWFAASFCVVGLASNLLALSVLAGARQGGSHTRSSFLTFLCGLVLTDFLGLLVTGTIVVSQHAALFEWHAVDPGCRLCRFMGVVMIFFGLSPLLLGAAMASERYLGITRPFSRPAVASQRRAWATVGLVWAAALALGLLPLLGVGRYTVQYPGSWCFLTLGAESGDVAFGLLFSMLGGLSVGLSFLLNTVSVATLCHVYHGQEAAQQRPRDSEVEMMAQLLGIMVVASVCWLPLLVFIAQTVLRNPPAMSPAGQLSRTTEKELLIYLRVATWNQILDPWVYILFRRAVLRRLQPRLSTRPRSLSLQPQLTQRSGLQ
As to the kind of experiment: Binding test: displacement of [3H]SQ-29.548 from human platelet thromboxane A2 receptors. Particulars: for inhibition at 1 µM: read-out: Affinity: percent of [3H]SQ-29.548 specifically substituted by the examined compound, compound 10^-6 M; for inhibition at 0.1 µM: read-out: Affinity: percent of [3H]SQ-29.548 specifically substituted by the examined compound, compound 10^-7 M. From the text:
To operate a first selection, the capacity of these compounds to displace in a specific way a tritium ligand, the [^3H]
Cozzi P., Giordani A., Menichincheri M., Pillan A., Pinciroli V., Rossi A., Tonani R., Volpi D., Tamburin M., Ferrario R., Fusar D., Salvati P.,—Agents combining thromboxane receptor antagonism with thromboxane synthase inhibition:[[[2-(1H-imidazol-1-yl)ethylidene]amino]oxy]alkanoic acids.—J. Med. Chem., 1994, 37, 3588-3604.
On the technique in general: Loss of bound radioactivity is the signal in a displacement assay; it reports binding, not function.

The target in experiment [2] is T2, TPτ thromboxan A2 receptors (Rattus norvegicus, UniProt P34978).
T2 construct: Two tests on smooth musculature have allowed to confirm the antagonist potency on the TPτ thromboxan A2 receptors; from tissue; host or cells: isolated rat aorta; isolated rat stomach fundus
T2 sequence (P34978 1-341): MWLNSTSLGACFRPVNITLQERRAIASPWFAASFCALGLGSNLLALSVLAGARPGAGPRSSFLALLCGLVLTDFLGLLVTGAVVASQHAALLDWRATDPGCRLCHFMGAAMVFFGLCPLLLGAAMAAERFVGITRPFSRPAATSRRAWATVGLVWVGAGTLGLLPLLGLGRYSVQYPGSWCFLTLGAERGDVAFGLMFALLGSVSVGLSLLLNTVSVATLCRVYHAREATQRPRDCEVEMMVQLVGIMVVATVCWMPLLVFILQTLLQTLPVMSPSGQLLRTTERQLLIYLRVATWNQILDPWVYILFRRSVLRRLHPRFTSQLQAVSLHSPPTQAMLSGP
The experiment can be described thus: Rat aorta contraction test (relaxation of aorta precontracted by U-46619). Particulars: tonus induced by U-46619 (0.03 μM); read-out: IC 50: concentration reducing by 50% the Rat Aorta muscular tonus. From the text: (§1) Two tests on smooth musculature have allowed to confirm the antagonist potency on the TPτ thromboxan A2 receptors. Indeed, the capacity of the selected compounds during the binding to prevent the contraction of the rat fundus induced by I′U-46619 and to relax the rat aorta precontracted by this same stable agonist of the TXA2 have been evaluated;
Test desribed according to:
de Tullio P., Pirotte B., Lebrun P., Fontaine J., Dupont L., Antoine M. H., Ouedraogo R., Khelili S., Maggetto C., Masereel B., Diouf O., Podona T., Delarge J., 3-and -4-substituted 4H-pyrido[4,3-e]-1,2,4-thiadiazine 1,1-dioxides as potassium channels openers: synthesis pharmacological evaluation, and structure-activity relationships.—J. Med. Chem., 1996, 39, 937-948.

The subject of experiment [3] is Human Platelets aggregation. As to the kind of experiment: Human platelet aggregation test induced by arachidonic acid or U-46619. The class given is cell-based. An excerpt: The TXA2 antagonist potency of the selected compounds has been evaluated by a platelet aggregation test induced by the U-46619 (stable agonist of the thromboxan A2) or by the arachidonic acid.
Test described according to:
Born G.V.R., Cross M. J.,—The aggregation of blood platelets.—J. Physiol., 1963, 168, 178-195.
Tsuyoshi T., Masayuki Y., Shuichi W., Kazuhiro K., Takashi Y.,—Designe, synthesis, and pharmacology of 3-substituted sodium azulene—1 sulfonates and related compounds: Non-prostaboid thromboxane A2 receptor antagonists.—J. Med. Chem., 1993, 36, 791-800.

The target of experiment [4] is T2, TPτ thromboxan A2 receptors. As to the kind of experiment: Test for preventing the rat fundus contraction induced by U-46619. The following applies: contraction caused by 5 μg of U-46619; read-out: IC 50: concentration reducing of 50% of maximum contraction amplitude of rat fundus.
Excerpt: as §1
Test description according to:
Harris N., Greenberg R., Phillips M. B., Michel I. M., Goldenberg H. J., Haslanger M. F., Steinbacher T.E.,—Effects of SQ-27,427, a thromboxane A2 receptor antagonist, in the human platelet and isolated smooth muscle.—Eur. J. Pharmacol., 1984, 103, 9-18.

Where [5] appears, read: Platelet, aggregation induced by 30 nM of U-46619, read-out: IC 50 platelet aggregation, U-46.619.
[6] abbreviates: Platelet, aggregation induced by arachidonic acid, read-out: IC 50 platelet aggregation, ARACHIDONIC ACID.

Where two headings read alike, the source gives them in different places.

Take `O=C(NC1CCCCC1)NS(=O)(=O)c1cc([N+](=O)[O-])ccc1NC1CCCCC1` [Compound 17]: in experiment [1], the IC50 was 0.0227 µM, the inhibition at 1 µM turned out to be 100% and the inhibition at 0.1 µM came out at 88%. For the same compound, the IC50 in experiment [2] was found to be 0.00138 µM.
With `Cc1cccc(Nc2ccc([N+](=O)[O-])cc2S(=O)(=O)NC(=NC#N)N2CCCCCC2)c1` [Compound 18, N-cyano-N′-[(2-metatoluylamin-5-nitrobenzene)sulfonyl]homopiperidinoamidine], the IC50 in experiment [1] was determined as 0.0242 µM; in experiment [3] (setting [5]) it was 0.48 µM; in experiment [3] (setting [6]), 0.36 µM; in experiment [2], 0.00121 µM; in experiment [4], 0.07 µM. Besides, the inhibition at 1 µM in experiment [1] is 100%. Also, the inhibition at 0.1 µM in experiment [1] is 88.9%.
For the compound `O=C(NC1CCCCC1)NS(=O)(=O)c1cc([N+](=O)[O-])ccc1NC1CCCCCC1` [Compound 22], in experiment [1], the IC50 came out at 0.0417 µM, the inhibition at 1 µM amounted to 100% and the inhibition at 0.1 µM worked out at 84.1%. Also, the IC50 in experiment [2] was determined as 0.0376 µM.
The matching figures for `CC(C)(C)NC(=O)NS(=O)(=O)c1cc([N+](=O)[O-])ccc1NC1CCCCCC1` [Compound 25]: 0.0105 µM, 100%, 95.2% and 0.0197 µM.
The matching figures for `CC(C)(C)NC(=O)NS(=O)(=O)c1cc([N+](=O)[O-])ccc1NC1CCCCC1` [Compound 29, N-[(2-cyclohexylamin-5-nitrobenzene)sulfonyl]N′-tert-butyl urea]: 0.0078 µM, 97.4%, 95.4% and 0.0206 µM.
Turning to `O=[N+]([O-])c1ccc(NC2CCCCCC2)c(S(=O)(=O)NC(=S)NC2CCCCC2)c1` [Compound 40, N-[(2-cycloheptylamin-5-nitrobenzene)sulfonyl]N′-cyclohexyl thiourea], in experiment [1], the IC50 is 0.0269 µM, the inhibition at 1 µM amounted to 94.4% and the inhibition at 0.1 µM was 63%. Moreover, the IC50 in experiment [2] worked out at 0.0177 µM.
Regarding `CCCCCNC(=O)NS(=O)(=O)c1cc(I)ccc1NC1C=CCCC1` (centres unmarked) [Compound 93], in experiment [1], the IC50 came to 0.0078 µM, the inhibition at 1 µM is 97.9% and the inhibition at 0.1 µM was 90.2%.
On to `CCCCCNC(=O)NS(=O)(=O)c1cc([N+](=O)[O-])ccc1Nc1ccccc1C` [Compound 94], for which the “Affinity: percent of [3H]SQ-29.548 specifically substituted by the examined compound, 10^-6M” value in experiment [1] came to 98.4%. Besides, the IC50 in experiment [1] (read-out: IC 50: concentration required for replacing 50% of [3H]SQ-29.548 bound to receptors TPα) turned out to be 0.00282 µM.
`CCCCCNC(=O)NS(=O)(=O)c1cc([N+](=O)[O-])ccc1Nc1ccc(C)cc1` [Compound 95]: in experiment [1], the IC50 worked out at 0.00145 µM and the inhibition at 1 µM is 98.5%.
Turning to `CCCCCNC(=O)NS(=O)(=O)c1cc([N+](=O)[O-])ccc1Nc1cccc(C)c1` [Compound 96], in experiment [1], the IC50 was determined as 0.0439 µM and the inhibition at 1 µM is 92.3%.
In the case of `CCCCCNC(=O)NS(=O)(=O)c1cc(C#N)ccc1NC1CCCCC1` [Compound 97], in experiment [1], the IC50 was determined as 0.0985 µM and the inhibition at 1 µM turned out to be 89.7%.
As for `O=C(O)CCC/C=C\CC1C2CCC(O2)C1CNNC(=O)Nc1ccccc1` (stereo not drawn) [SQ-29.548, acid [15-[1-alpha,2-beta (5Z),3-beta, 4-alpha]-7-[3-[[2-(phenylamino)carbonyl]hydrazin]methyl]-7-oxabicyclo[2.2.1]hept-2-yl]-5-heptenoic, reference compound], the “Affinity: percent of [3H]SQ-29.548 specifically substituted by the examined compound, 10^-6M” value in experiment [1] is 100%. The “Affinity: percent of [3H]SQ-29.548 specifically substituted by the examined compound, 10^-7M” value in experiment [1] (compound 10^-7 M) is 72.0%. Further, the IC50 in experiment [3] (aggregation induced by 30 nM of U-46619, read-out: IC 50 platelet aggregation, U-46.619) is 0.034 µM; in experiment [3] (aggregation induced by arachidonic acid, read-out: IC 50 platelet aggregation, ARACHIDONIC ACID), 0.035 µM; in experiment [2], 0.0318 µM; in experiment [4], 0.18 µM.
Turning to `O=C(O)COc1ccc(CCNS(=O)(=O)c2ccccc2)cc1` [SULOTROBAN, sulotroban, reference compound], in experiment [1], the inhibition at 1 µM stood at 55.6%. Also, in experiment [1], the inhibition at 0.1 µM is 16.5%. The IC50 came to 10.5 µM in experiment [3] (setting [5]), 11.7 µM in experiment [3] (setting [6]), 1.6 µM in experiment [2] and 0.83 µM in experiment [4].
